Active and inactive are the calls of the source. The rule behind the calls is not given here.
Experiments:
[1] = tested on: Vero; test: Cytotoxicity against african green monkey Vero cells at 25 uM; format: cell-based; settings: chlorocebus sabaeus
[2] = tested on: PC-12; test: Induction of neurite outgrowth in rat PC12 cells at 10 uM after 5 days; format: functional, cell-based
[3] = target: T1, Protein deacetylase HDAC6 (Homo sapiens, UniProt Q9UBN7); test: Inhibition of human recombinant HDAC6 expressed in baculovirus/sf9 cells using RHKKAc as substrate
T1 sequence (Q9UBN7 whole entry): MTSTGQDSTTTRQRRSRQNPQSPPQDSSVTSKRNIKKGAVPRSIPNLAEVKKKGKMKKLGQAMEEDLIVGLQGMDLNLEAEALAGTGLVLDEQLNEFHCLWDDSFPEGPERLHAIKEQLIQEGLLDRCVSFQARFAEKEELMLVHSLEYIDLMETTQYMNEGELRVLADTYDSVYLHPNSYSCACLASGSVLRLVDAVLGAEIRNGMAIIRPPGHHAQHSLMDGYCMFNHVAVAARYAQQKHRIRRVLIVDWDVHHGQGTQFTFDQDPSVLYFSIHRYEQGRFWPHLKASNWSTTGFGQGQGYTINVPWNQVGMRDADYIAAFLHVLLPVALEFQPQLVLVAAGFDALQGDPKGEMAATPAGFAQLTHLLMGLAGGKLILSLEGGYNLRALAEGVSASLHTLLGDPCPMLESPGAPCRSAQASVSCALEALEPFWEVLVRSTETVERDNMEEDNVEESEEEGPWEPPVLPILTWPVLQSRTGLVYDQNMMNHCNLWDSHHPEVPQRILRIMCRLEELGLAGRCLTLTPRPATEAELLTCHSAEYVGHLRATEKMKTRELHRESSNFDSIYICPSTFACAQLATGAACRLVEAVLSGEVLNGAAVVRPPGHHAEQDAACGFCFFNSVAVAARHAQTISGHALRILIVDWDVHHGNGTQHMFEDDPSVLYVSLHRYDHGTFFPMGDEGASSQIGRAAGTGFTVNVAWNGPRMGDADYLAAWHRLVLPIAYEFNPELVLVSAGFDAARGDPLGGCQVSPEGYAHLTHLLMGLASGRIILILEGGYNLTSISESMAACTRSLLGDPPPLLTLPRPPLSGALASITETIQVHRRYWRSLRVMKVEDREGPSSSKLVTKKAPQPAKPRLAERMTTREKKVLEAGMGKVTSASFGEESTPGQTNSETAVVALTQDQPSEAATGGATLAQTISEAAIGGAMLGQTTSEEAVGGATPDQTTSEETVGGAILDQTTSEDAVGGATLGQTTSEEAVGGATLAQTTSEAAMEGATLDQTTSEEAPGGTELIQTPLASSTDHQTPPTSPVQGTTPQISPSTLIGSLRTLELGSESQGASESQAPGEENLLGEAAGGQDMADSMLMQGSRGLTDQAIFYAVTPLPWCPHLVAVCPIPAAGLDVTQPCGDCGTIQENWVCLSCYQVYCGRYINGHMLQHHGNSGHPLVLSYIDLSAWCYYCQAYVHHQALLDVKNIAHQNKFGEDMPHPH

[4] = tested on: SH-SY5Y; test: Increase of synaptic activity in human SH-SY5Y cells after 5 days by fluorescence assay; format: functional, cell-based; settings: 120 h
[5] = target: T2, Histone deacetylase 8 (Homo sapiens, UniProt Q9BY41); test: Inhibition of human recombinant HDAC8 expressed in baculovirus/sf9 cells using RHKAcKAc as substrate
T2 sequence (Q9BY41 whole entry): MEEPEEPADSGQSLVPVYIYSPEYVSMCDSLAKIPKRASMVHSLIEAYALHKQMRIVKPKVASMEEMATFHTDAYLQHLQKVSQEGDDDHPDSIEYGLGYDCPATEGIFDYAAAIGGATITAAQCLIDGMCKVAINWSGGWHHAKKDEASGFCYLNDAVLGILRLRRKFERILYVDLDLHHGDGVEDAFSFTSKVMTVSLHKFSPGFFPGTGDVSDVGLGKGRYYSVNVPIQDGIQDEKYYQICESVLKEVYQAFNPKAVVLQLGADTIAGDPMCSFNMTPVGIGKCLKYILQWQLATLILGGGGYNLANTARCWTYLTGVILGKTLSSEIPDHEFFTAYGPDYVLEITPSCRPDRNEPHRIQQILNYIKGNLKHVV

[6] = tested on: SH-SY5Y; test: Induction of neurite outgrowth in human SH-SY5Y cells at 10 uM after 5 days; format: functional, cell-based
[7] = target: Histone deacetylase 1 (Homo sapiens, UniProt Q13547); test: Inhibition of human recombinant HDAC1 expressed in baculovirus/sf9 cells using RHKKAc as substrate
[8] = Cytotoxicity against human SH-SY5Y cells at 25 uM; format: cell-based
[9] = tested on: PC-12; test: Induction of neurite outgrowth in rat PC12 cells after 5 days; format: functional, cell-based; settings: PC-12, 120 h
[10] = target: Poly [ADP-ribose] polymerase 1 (Homo sapiens) (UniProt P09874); test: Inhibition of PARP1 (unknown origin) up to 25 uM
[11] = target: Histone deacetylase 2 (Homo sapiens, UniProt Q92769); test: Inhibition of human recombinant HDAC2 expressed in baculovirus/sf9 cells using RHKKAc as substrate
[12] = tested on: PC-12; test: Cytotoxicity against rat PC12 cells at 25 uM; format: cell-based; settings: pc-12, 25 µM
[13] = tested on: SH-SY5Y; test: Induction of neurite outgrowth in human SH-SY5Y cells after 5 days; format: functional, cell-based; settings: 120 h
[14] = target: T3, Histone deacetylase 11 (Homo sapiens, UniProt Q96DB2); test: Inhibition of human recombinant HDAC11 expressed in baculovirus/sf9 cells using RHKKAc as substrate
T3 sequence (Q96DB2 whole entry): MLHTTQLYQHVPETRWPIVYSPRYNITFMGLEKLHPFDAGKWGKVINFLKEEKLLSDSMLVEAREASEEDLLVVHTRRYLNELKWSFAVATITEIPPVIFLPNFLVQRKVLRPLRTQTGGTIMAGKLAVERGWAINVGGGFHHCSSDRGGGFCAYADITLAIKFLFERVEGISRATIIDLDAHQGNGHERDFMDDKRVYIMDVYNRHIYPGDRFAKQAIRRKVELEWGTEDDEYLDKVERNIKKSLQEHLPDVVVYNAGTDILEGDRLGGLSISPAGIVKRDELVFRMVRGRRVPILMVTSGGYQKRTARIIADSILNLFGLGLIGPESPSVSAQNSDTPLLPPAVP

[15] = tested on: PC-12; test: Induction iof GAP-43 protein expression in rat PC12 cells after 48 hrs by Western blotting analysis; format: functional, cell-based
[16] = tested on: PC-12; test: Increase of synaptic activity in rat PC12 cells after 5 days by fluorescence assay; format: functional, cell-based; settings: PC-12, 120 h
[17] = target: T4, Amyloid-beta precursor protein (Homo sapiens, UniProt P05067); test: Inhibition of amyloid beta aggregation (unknown origin) after 4 hrs by thioflavin S assay in absence of Zn2+
[18] = species: Homo sapiens; test: Selectivity index, ratio of IC50 for human recombinant HDAC1 to IC50 for human recombinant HDAC6
[19] = species: Homo sapiens; test: Selectivity index, ratio of IC50 for human recombinant HDAC8 to IC50 for human recombinant HDAC6
[20] = target: T4, Amyloid-beta precursor protein; test: Inhibition of amyloid beta aggregation (unknown origin) after 4 hrs by thioflavin S assay in presence of Zn2+

T4 sequence (P05067 whole entry): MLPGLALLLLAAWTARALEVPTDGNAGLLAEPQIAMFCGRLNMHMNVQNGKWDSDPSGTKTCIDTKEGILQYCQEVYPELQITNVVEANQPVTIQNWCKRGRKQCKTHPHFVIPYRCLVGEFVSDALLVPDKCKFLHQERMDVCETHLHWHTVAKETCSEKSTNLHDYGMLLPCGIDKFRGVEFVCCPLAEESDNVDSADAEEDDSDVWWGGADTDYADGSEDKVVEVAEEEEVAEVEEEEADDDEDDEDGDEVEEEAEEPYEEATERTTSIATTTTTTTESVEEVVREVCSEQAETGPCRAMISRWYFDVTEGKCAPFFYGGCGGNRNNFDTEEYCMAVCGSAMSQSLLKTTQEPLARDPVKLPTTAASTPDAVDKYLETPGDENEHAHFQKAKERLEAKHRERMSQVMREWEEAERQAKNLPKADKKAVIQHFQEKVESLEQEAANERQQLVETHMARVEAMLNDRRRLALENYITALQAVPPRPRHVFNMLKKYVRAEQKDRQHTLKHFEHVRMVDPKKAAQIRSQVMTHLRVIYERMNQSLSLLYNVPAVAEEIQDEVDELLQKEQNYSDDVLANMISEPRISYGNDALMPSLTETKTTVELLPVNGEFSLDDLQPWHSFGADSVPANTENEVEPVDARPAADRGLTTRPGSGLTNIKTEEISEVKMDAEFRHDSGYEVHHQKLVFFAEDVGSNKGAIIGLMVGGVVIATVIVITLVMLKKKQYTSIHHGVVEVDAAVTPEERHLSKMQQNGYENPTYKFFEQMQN
Sequence of Histone deacetylase 2 (Q92769 whole entry): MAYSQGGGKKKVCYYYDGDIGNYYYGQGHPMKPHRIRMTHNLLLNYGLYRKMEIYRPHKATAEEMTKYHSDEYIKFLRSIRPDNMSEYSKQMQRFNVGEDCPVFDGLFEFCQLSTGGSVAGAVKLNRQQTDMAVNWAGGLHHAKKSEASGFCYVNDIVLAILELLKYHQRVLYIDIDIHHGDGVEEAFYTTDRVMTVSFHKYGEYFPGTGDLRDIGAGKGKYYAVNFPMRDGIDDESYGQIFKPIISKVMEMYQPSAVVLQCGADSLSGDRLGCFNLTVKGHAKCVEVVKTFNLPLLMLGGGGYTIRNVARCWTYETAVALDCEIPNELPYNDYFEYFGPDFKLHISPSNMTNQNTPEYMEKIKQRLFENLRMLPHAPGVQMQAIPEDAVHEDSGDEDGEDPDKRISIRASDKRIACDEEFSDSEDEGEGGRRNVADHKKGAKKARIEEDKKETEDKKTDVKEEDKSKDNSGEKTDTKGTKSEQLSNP
Sequence of Histone deacetylase 1 (Q13547 whole entry): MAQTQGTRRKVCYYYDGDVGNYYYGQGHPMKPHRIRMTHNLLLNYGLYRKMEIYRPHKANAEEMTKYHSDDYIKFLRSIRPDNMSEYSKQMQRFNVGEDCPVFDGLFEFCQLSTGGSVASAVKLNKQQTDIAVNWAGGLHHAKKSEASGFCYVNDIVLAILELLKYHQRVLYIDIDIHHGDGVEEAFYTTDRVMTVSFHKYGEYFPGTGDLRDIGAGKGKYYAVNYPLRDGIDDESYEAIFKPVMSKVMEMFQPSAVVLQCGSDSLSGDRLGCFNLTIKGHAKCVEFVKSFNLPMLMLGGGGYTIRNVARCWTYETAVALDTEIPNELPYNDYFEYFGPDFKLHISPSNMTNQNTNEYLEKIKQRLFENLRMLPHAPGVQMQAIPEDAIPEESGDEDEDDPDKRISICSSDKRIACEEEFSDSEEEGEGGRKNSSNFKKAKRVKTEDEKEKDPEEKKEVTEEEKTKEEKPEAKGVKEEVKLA
Sequence of Poly [ADP-ribose] polymerase 1 (Homo sapiens) (P09874 whole entry): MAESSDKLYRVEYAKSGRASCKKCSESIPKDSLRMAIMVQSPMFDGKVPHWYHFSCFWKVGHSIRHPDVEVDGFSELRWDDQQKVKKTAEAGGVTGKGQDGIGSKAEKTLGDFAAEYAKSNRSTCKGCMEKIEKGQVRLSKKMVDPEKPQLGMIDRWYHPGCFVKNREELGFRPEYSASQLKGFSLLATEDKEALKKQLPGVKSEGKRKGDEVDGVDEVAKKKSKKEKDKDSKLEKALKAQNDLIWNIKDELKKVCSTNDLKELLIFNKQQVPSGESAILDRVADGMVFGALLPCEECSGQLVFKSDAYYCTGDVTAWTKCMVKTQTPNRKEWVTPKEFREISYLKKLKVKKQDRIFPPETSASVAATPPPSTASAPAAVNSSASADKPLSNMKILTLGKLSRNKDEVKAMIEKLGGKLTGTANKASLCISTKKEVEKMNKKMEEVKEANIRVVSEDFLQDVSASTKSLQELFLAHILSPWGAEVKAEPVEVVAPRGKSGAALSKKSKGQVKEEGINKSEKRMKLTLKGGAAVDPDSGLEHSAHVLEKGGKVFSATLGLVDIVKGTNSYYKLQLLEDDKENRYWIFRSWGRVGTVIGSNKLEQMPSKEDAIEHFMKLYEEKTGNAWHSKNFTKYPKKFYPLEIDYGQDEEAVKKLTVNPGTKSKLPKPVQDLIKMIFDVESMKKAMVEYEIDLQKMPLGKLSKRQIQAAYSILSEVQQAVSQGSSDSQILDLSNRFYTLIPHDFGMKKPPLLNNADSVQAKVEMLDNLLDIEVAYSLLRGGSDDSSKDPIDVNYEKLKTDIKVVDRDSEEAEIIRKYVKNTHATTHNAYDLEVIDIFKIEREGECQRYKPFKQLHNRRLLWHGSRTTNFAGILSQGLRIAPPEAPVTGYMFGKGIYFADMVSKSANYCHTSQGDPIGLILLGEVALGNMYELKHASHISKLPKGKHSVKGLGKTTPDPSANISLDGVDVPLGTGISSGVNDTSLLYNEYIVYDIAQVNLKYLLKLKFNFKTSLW

Row | Compound | Activity [1] | Activity [2] | IC50 [3] [µM] | EC50 [4] [µM] | IC50 [5] [µM] | Activity [6] | IC50 [7] [µM] | Activity [8] | EC50 [9] [µM] | inhibition [10] | IC50 [11] [µM] | Activity [12] | EC50 [13] [µM] | IC50 [14] [µM] | Activity [15] | EC50 [16] [µM] | IC50 [17] [µM] | Ratio IC50 [18] | Ratio IC50 [19] | IC50 [20] [µM]
1 | CCc1nc2cc(/C=C/C(=O)NO)ccc2c(=O)n1CCCc1ccccc1 | Non-toxic | Active | 0.033 | 10 | 1.33 | Active | 3.2 | Non-toxic | 6.6 | inactive | > 12 | Non-toxic | 11.7 | 5.59 | Dose-dependent effect | 7 |  |  |  | 
2 | O=C(/C=C/c1ccc2c(=O)n(CCc3ccccc3)cnc2c1)NO | Non-toxic | Active | 0.035 | 4.9 | 0.6 | Active | 0.495 | Non-toxic | > 25 |  | 1.22 | Non-toxic | 15 | 0.73 |  | 14.5 | > 50 |  |  | 
3 | Cc1nc2cc(/C=C/C(=O)NO)ccc2c(=O)n1CCc1c[nH]c2ccccc12 | Non-toxic |  | 0.015 |  | 1.59 |  | 0.758 | Non-toxic |  |  | 2.21 | Non-toxic |  | 1.21 |  |  | > 50 | 51 | 106 | 
4 | O=C(O)CN(CCN(CC(=O)O)CC(=O)O)CC(=O)O [EDETIC ACID] |  |  |  |  |  |  |  |  |  |  |  |  |  |  |  |  | 28.4 |  |  | 7.7
5 | CC(C)c1nc2cc(/C=C/C(=O)NO)ccc2c(=O)n1CCc1ccccc1 | Non-toxic | Active | 0.013 | 6.7 |  | Active | 0.389 | Non-toxic | 11.5 |  |  | Non-toxic | 15 |  |  | 5.3 |  |  |  | 
6 | CCc1nc2cc(/C=C/C(=O)NO)ccc2c(=O)n1CCc1ccc(OC)cc1 | Non-toxic |  | 0.041 | 20.6 | 0.594 |  | 1.81 | Non-toxic | 7.2 |  | 4.78 | Non-toxic | > 25 | 3.91 |  | 20.6 |  |  |  | 
7 | CCc1nc2cc(/C=C/C(=O)NO)ccc2c(=O)n1CCc1ccccc1 | Non-toxic | Active | 0.011 | 0.9 | 1.18 | Active | 1.19 | Non-toxic | 5.3 | inactive | 4.81 | Non-toxic | 11 | 2.95 | Dose-dependent effect | 7.2 | > 50 |  |  | 
8 | CCc1nc2cc(/C=C/C(=O)NO)ccc2c(=O)n1CCc1ccc(F)cc1 | Non-toxic | Active | 0.043 | 22.2 | 0.891 | Active | 2.11 | Non-toxic | 18.4 |  | 6.88 | Non-toxic | > 25 | 4.25 |  | 13.9 |  |  |  | 
9 | O=C(/C=C/c1ccc2c(=O)n(CCc3ccccc3)c(C3CC3)nc2c1)NO | Non-toxic | Active | 0.041 | > 25 |  | Active | 0.433 | Non-toxic | 10.5 |  |  | Non-toxic | > 25 |  |  |  |  |  |  | 
10 | O=C(O)c1cccnc1 [NIACIN] |  |  |  |  |  |  |  |  |  |  |  |  |  |  |  |  | 13.1 |  |  | 43.7
11 | CCc1nc2ccc(Cc3ccc(C(=O)NO)cc3)cc2c(=O)n1CCc1ccccc1 | Non-toxic | Active | 0.011 | 4.1 | 0.099 | Active | 1.05 | Non-toxic | 9.4 |  | 3.61 | Non-toxic | 18.4 | 0.656 |  | 2.9 |  |  |  | 
12 | CCc1nc2cc(/C=C/C(=O)NO)c(F)cc2c(=O)n1CCc1ccccc1 | Non-toxic |  | 0.014 |  | 1.4 |  | 3 | Non-toxic |  |  | > 10 | Non-toxic |  | 3.74 |  |  |  | 214 | 100 | 
13 | Cc1nc2cc(/C=C/C(=O)NO)ccc2c(=O)n1Cc1ccccc1 | Non-toxic | Active | 0.024 | 8.2 | 1.27 | Active | 1.45 | Non-toxic | 20.9 |  | 4 | Non-toxic | > 25 | 2.44 |  | 8.2 | > 50 |  |  | 
14 | CCc1nc2cc(Cl)c(/C=C/C(=O)NO)cc2c(=O)n1CCc1ccccc1 | Non-toxic |  | 0.747 |  | 1.88 |  | > 10 | Non-toxic |  |  | > 12 | Non-toxic |  | > 30 |  |  |  | > 13 | 3 | 
